Test results from patent publication US6337348B1, “Oxy-vanadium (iv) complexes having spermicidal activity” (Parker Hughes Institute, priority 1998, dated 2002).

Experiments:
Format in all cases: cell-based
[1] = system: human sperm; assay: Mitochondrial transmembrane potential (JC-1 dye) flow cytometry; details: 100 μM, 3 hours, 37° C.
Description: The loss of ΔΨm, a early marker for apoptosis was quantitated by flow cytometry using the lipophilic cationic dye, 5,5′,6,6′-tetrachloro 1,1′,3,3′-tetraethylbenzimidazolecarbocyanine iodide (JC-1) as described in Cossarizza et al., 1993, BBRC 197:40-45. This dye accumulates in the mitochondrial matrix under the influence of the ΔΨm. The molecule is able to selectively enter into mitochondria, the monomeric form emitting at 527 nm after excitation at 490 nm. However, depending on the membrane potential, JC-1is able to form J-aggregates that are associated with a large shift in emission (590 nm). The color of the dye changes reversibly from green to greenish orange at ΔΨm becomes more polarized.
To quantitate changes in sperm ΔΨm following oxovanadium (IV) complex exposure, highly motile fraction of sperm (10^7/ml) in duplicate aliquots, were incubated at 37° C. for 3 hours in BWW−0.3% BSA medium in the presence and absence of 100 μM each of the vanadocene complexes, VO(phen), VO(phen)2, VO(Me2—phen), VO(Me2—phen)2, VO(Cl—phen), VO(Cl—phen)2, VO(bipy), VO(bipy)2, VO(Me2—bipy), VO(Me2—bipy)2, and VO(Br,OH—acph)2. Following incubation, 10 μg/ml JC-1 (Molecular Probes, Eugene, Oreg.) was added from a stock solution in DMSO (1 mg/ml) to the sperm suspension and incubated for an additional 10 minutes. At the end of the incubation period, sperm were washed in Tyrode's salt solution (Sigma), resuspended in 200 μl, and analyzed by flow cytometry for JC-1-specific fluorescence. The excitation was at 488 nm; the emissions for green and red/orange fluorescence were 530 nm and 575 nm respectively. JC-1 monomer and aggregated fluorescence were simultaneously measured in oxovanadium (IV) complex-exposed and control sperm. The percentages of sperm positive for green, orange, and greenish orange were determined using the cutoff signals for JC-1 labeled motile sperm.

[2] = system: human sperm; assay: FITC-Annexin V surface binding flow cytometry; details: 100 μM, 12 hours, 37° C.
Method: In order to examine the expression of phosphatidyl serine on the sperm surface following oxovanadium (IV) complex exposure, surface binding of FITC-Annexin V was evaluated by flow cyotometry as described in Vermes et al., 1995, J. Immunol. Meth., […]:39-51. One ml aliquots of highly motile sperm (10^7) in triplicate were incubated in BWW−0.3% BSA at 37° C. for 12 hours with and without 100 μM of each of the oxovanadium (IV) complexes VO(phen), VO(phen)2, VO(Me2—phen), VO(Me2—phen)2, VO(Cl—phen), VO(Cl—phen)2, VO(bipy), VO(bipy)2, VO(Me2—bipy), VO(Me2—bipy)2, and VO(Br,OH—acph)2 in 0.1% DMSO. After exposure to these complexes, sperm were washed with 1% Tyrode's salt solution containing 1% BSA (1% TBSA), and the pellets were resuspended in the same medium. The sperm suspension was reacted for 30 minutes at room temperature with 6 μg/ml of FITC-conjugated recombinant human Annexin V (Caltag Laboratories, San Francisco, Calif.). After two washes in Tyrode's salt solution, sperm were resuspended in 1% TBSA containing 1 μg/ml propidium iodide (PI) and analyzed for surface-bound Annexin V and PI-permeability by quantitative flow cytometry using an argon laser for excitation of fluorescence. Annexin V and PI binding were simultaneously measured in oxovanadium (IV) complex-exposed and control sperm as described previously (de Lamirande et al., 1993, Fertil Seril 59:1291-1295). The percentages of sperm positive for Annexin V and PI were determined using the cutoff signals for membrane-intact motile sperm. Two separate experiments were performed to assess the surface expression of phosphatidyl serine following exposure of sperm to oxovanadium (IV) complexes.

[3] = system: human sperm; assay: DNA fragmentation by in situ nick-end labeling (TUNEL) flow cytometry; details: 100 μM, 24 hours, 37° C.
Method: A flow cytometric two-color terminal deoxynucleotidyl transferase (TdT) assay was employed to detect apoptotic sperm nuclei by TdT-mediated dUTP nick-end labeling (TUNEL, as described in Gavrieli et al., 1992, J. Cell Biol., 119:493-501). The comparative effect of the oxovanadium (IV) complexes, VO(phen), VO(phen)2, VO(Me2—phen), VO(Me2—phen)2, VO(Cl—phen), VO(Cl—phen)2, VO(bipy), VO(bipy)2, VO(Me2—bipy), VO(Me2—bipy)2, and VO(Br,OH—acph)2, to induce apoptosis was tested by incubating 1 ml duplicate aliquots of motile sperm (10^7/ml) in BWW−0.3% BSA at 37° C. for 24 hours with and without 100 μM each of the test compounds. Sperm were washed in phosphate-buffered saline (PBS)−1% BSA, fixed in 4% paraformaldehyde in PBS for 15 minutes. Following two washings in PBS, they were permeabilized with 0.1% Triton X-100 in 0.1% sodium citrate for 2 minutes on ice, and washed twice with PBS. New 3′-hydroxyl (3′—OH) end labeling of fragmented sperm nuclear DNA was performed using TdT and detected by fluorescein (FITC)-conjugated uridine triphosphate (dUTP) according to the manufacturer's recommendations (Boehringer-Mannheim, Indianapolis, Ind.). Sperm aliquots incubated without TdT enzyme served as a negative control. […] Oxovanadium (IV)-induced apopotosis of sperm was shown by an increase in the number of cells staining with FITC- dUTP (M2 gates). The M1 and M2 gates were used to demarcate non-apoptotic and apoptotic PI-counterstained sperm populations, respectively. Two separate experiments were performed to assess dUTP incorporation following exposure of sperm to oxovanadium (IV) complexes.

Annexin V positive sperm (%) [2]	Annexin V positive sperm (%) ([2]; listed as VO(Cl—phen)2)	Compound	JC-1 aggregate-positive sperm (%) [1]	TUNEL positive sperm (%) [3]	TUNEL positive sperm (%) ([3]; listed as VO(Cl—phen)2)
99%	99%	Clc1cc2cccnc2c2ncccc12.Clc1cc2cccnc2c2ncccc12.O.O=S(=O)([O-])[O-].[O]=[V+2] [VO(Cl-phen)2, (aqua)bis(5-chloro-1,10-phenanthroline)oxovanadium (IV) sulfate]	35%	97%	Greater than 97%
90%		Clc1cc2cccnc2c2ncccc12.O.O.O=S(=O)([O-])[O-].[O]=[V+2] [VO(Cl-phen), (diaqua)(5-chloro-1,10-phenanthroline)oxovanadium (IV) sulfate]	39%	95%	
17%		Cc1ccnc2c1ccc1c(C)ccnc12.Cc1ccnc2c1ccc1c(C)ccnc12.O.O=S(=O)([O-])[O-].[O-2].[V+4] [VO(Me2-phen)2, (aqua)bis(4,7-dimethyl-1,10-phenanthroline)oxovanadium (IV) sulfate]	63%	94%	
96%		Cc1ccnc2c1ccc1c(C)ccnc12.O.O.O=S(=O)([O-])[O-].[O]=[V+2] [VO(Me2-phen), (diaqua)(4,7-dimethyl-1,10-phenanthroline)oxovanadium (IV) sulfate]	38%	97%	
26%		O.O=S(=O)([O-])[O-].[O-2].[V+4].c1ccc(-c2ccccn2)nc1.c1ccc(-c2ccccn2)nc1 [VO(bipy)2, (aqua)bis(2,2′-bipyridyl)oxovanadium (IV) sulfate]	94%	40%	
36%		O.O.O=S(=O)([O-])[O-].[O]=[V+2].c1ccc(-c2ccccn2)nc1 [VO(bipy), (diaqua)(2,2′-bipyridyl)oxovanadium (IV) sulfate]	95%	43%	
98%		O.O=S(=O)([O-])[O-].[O]=[V+2].c1cnc2c(c1)ccc1cccnc12.c1cnc2c(c1)ccc1cccnc12 [VO(phen)2, (aqua)bis(1,10-phenanthroline)oxovanadium (IV) sulfate]	25%	98%	
97%		O.O.O=S(=O)([O-])[O-].[O]=[V+2].c1cnc2c(c1)ccc1cccnc12 [VO(phen), (diaqua)(1,10-phenanthroline)oxovanadium (IV) sulfate]	35%	98%	
78%		(aqua)bis(4,4′-dimethyl-2,2′-bipyridyl)oxovanadium (IV) sulfate [VO(Me2-bipy)2]	62%	63%	
47%		(diaqua)(4,4′-dimethyl-2,2′-bipyridyl)oxovanadium (IV) sulfate [VO(Me2-bipy)]	88%	45%	
95%		bis(5′-bromo-2′-hydroxyacetophenone)oxovanadium (IV) [VO(Br,OH-acph)2]	83%	98%	
